This is an account of results in US20060084648A1, “Ethynyl derivatives as factor xa inhibitors” (Merck Patent GmbH, priority 2003, published 2006).

In one data set the target is T1, TF/FVIIa (Homo sapiens, UniProt P08709).
T1 construct: Coagulation factor VIIa initiates the extrinsic part of the coagulation cascade
Nature of the data set: TF/factor VIIa inhibition (TF/FVIIa-IC50, pharmacological data). The format is biochemical. An excerpt: The inhibition of factor VIIa by the compounds according to the invention and the measurement of the anticoagulant and antithrombotic activity can be determined by conventional in-vitro or in-vivo methods. A conventional method for the measurement of the inhibition of factor VIIa is described, for example, by H. F. Ronning et al. in Thrombosis Research 1996, 84, 73-81.

A further data set concerns the target FXa (Homo sapiens, UniProt P00742). The experiment in a line: Factor Xa inhibition (FXa-IC50, pharmacological data). In kind it is biochemical. An excerpt: The inhibition of factor Xa by the compounds according to the invention and the measurement of the anticoagulant and antithrombotic activity can be determined by conventional in-vitro or in-vivo methods. A suitable method is described, for example, by J. Hauptmann et al. in Thrombosis and Haemostasis 1990, 63, 220-223.
The inhibition of factor Xa can be measured, for example by the method of T. Hara et al. in Thromb. Haemostas. 1994, 71, 314-319.

Sequence of FXa (P00742 235-488 limits assumed): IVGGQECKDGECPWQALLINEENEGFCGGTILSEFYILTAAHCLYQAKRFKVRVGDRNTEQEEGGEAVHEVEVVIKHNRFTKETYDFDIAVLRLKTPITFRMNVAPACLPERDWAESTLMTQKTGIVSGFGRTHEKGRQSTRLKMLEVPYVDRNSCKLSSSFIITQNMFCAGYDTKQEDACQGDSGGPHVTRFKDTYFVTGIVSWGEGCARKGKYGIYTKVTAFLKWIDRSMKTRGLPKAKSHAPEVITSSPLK
Sequence of FXa (P00742 41-179 limits assumed): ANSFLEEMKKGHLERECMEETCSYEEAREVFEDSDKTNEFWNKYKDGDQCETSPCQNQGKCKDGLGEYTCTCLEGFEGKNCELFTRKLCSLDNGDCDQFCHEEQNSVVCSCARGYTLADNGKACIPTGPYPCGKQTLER
T1 sequence (P08709 213-466 limits assumed): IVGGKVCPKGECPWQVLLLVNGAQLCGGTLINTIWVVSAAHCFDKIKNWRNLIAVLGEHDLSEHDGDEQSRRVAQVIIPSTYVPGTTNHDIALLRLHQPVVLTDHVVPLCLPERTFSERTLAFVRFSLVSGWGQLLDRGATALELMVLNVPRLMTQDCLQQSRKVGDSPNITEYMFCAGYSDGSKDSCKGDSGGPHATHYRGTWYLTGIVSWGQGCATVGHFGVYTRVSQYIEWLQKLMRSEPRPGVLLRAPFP
T1 sequence (P08709 61-212 limits assumed): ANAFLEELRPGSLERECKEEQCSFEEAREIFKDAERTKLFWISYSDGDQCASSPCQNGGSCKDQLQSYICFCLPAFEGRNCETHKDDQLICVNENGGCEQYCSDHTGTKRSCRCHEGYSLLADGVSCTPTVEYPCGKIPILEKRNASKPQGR
T1 sequence (P13726 33-295 partner): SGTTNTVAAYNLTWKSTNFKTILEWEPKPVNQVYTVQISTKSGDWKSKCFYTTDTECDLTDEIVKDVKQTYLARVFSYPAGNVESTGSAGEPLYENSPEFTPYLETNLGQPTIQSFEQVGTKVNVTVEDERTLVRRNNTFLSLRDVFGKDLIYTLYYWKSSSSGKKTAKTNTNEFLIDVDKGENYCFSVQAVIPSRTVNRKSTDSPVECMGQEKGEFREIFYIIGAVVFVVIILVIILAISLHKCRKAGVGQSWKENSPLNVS

A word on the IC50: it is the concentration needed to halve the response being measured. Higher therefore signals lower potency. A word on the melting point: it is the temperature, or range, at which the solid turns liquid. `C#Cc1ccc(NC(=O)N[C@H](CCC)C(=O)Nc2ccc(N3CCOCC3=O)cc2)cc1` [AA, (R)-2-[3-(4-ethynylphenyl)ureido]-N-[4-(3-oxomorpholin-4-yl)-phenyl]valeramide] gave a melting point of 182 °C. The same compound had an IC50 on TF/FVIIa of 88 nM. This compound showed an IC50 on FXa of 25 nM.

For `C#Cc1ccc(NC(=O)N[C@H](CO)C(=O)Nc2ccc(N3CCOCC3=O)cc2)cc1` [Compound 5], the IC50 was 33 nM against TF/FVIIa and 42 nM against FXa.

`C#Cc1ccc(NC(=O)N[C@H](COC)C(=O)Nc2ccc(N3CCOCC3=O)cc2)cc1` [Compound 6]: the values for the IC50 against TF/FVIIa and against FXa were 37 nM and 22 nM, respectively.

`C#Cc1ccc(NC(=O)N[C@H](CC(C)C)C(=O)Nc2ccc(N3CCOCC3=O)cc2)cc1` [AB, (R)-2-[3-(4-ethynylphenyl)ureido]-N-[4-(3-oxomorpholin-4-yl)phenyl]4-methylvaleramide]: the IC50 worked out at 41 nM on TF/FVIIa and 36 nM at FXa.

In the case of `C#Cc1ccc(NC(=O)N[C@H](CC(C)C)C(=O)Nc2ccc(N3CCNC3=N)cc2)cc1` [AC, (R)-2-[3-(4-ethynylphenyl)ureido]-N-[4-(2-iminoimidazolidin-1-yl)phenyl]4-methylvaleramide], the IC50 against TF/FVIIa turned out to be 240 nM; against FXa, 46 nM.
